The values below come from patent US9187486B2 (AMGEN INC., priority 2011, dated 2015).

Read-outs that look alike come from different tables or passages of the source. Bounds are passed on as bounds.

In one test the target is Pim-1 (Homo sapiens (Human), UniProt P11309). As to the kind of experiment: Pim enzyme assay (HTRF, phosphorylation of biotinylated-BAD (S112) peptide), Pim-1. In kind it is biochemical. The source says:
(§1) Full-length human cDNAs encoding Pim-1 (MGC ID 3913552) or Pim-2 (IMAGE ID 5092935) were purchased from Invitrogen, Carlsbad, Calif. These cDNAs were used as templates in PCR reactions to produce full-length DNA clones of the PIMs. Oligonucleotide PCR primers for Pim-1 were 5′-[…]-3′ and 5′-[…]-3′. Oligonucleotide PCR primers for Pim-2 were 5′-[…]-3′ and 5′-[…]-3′. PCR products were digested with BclI and EcoRI for Pim-1 and BamHI and EcoRI for Pim-2 and ligated into a modified baculovirus transfer vector (pFastBac 1) cleaved with BamHI and EcoRI. For bacterial expression, the same cleaved PCR products encoding Pim-1 or Pim-2 were ligated into a modified E. coli expression vector pET28(a) cleaved with BamHI and EcoRI. Amino-terminal hexahistidine tags followed by a thrombin cleavage site were previously added to the vectors using standard methods of molecular biology. Recombinant baculoviruses expressing Pim-1 or Pim-2 were made using standard methods (Fastbac manual, Invitrogen, Carlsbad, Calif.). Infection of Sf9 cells was done at an m.o.i. of greater than 5 for 24-48 h. Cells were harvested by centrifugation and frozen at −80 C. For E. coli expression, cells carrying pET28-His6-Th-Pim-1 or pET28-His6-Th-Pim-2 were picked from a single colony and grown o/n in LB media. The o/n culture was used to inoculate a 2 liter flask with 500 mL media. This was grown o/n and used to inoculate 15-20 liters of Terrific Broth in a New Brunswick Scientific fermentor. The E. coli were grown at 37° C. to and OD600>1.6. The temperature was dropped to 18° C. and o/n expression was induced with 0.5 mM IPTG. Cells were harvested by centrifugation and frozen at −80° C.
(§2) The frozen cell pellets were thawed by stirring in chilled lysis buffer (0.05 M HEPES, pH 8.0, 0.25 M NaCl, 0.01 M 2-mercaptoethanol, 10% (w/v) glycerol, 0.5% (v/v) protease inhibitor cocktail (Sigma P-8340) at a ratio of 1 L/200 g cells until homogeneous. The thawed suspension was applied to a microfluidizer at 10,000 PSI to disrupt the cells and the whole lysates were clarified by centrifugation at 50,000×g for 90 min, 4° C. Imidazole was added to the clarified lysate to a final concentration of 2.5 mM and the lysate was mixed with 10 mL of Talon resin (Clontech) and the slurry rocked gently overnight at 4° C. The slurry was centrifuged at 1,000×g for 5 min, the supernatant decanted, and the resin suspended in 40 mL of lysis wash buffer (lysis buffer at 0.75 M NaCl). This step was repeated 3× and the resin was transferred to a 2.5 cm glass column. Ten column volumes of wash buffer (0.05 M HEPES, pH 8.0, 0.1 M NaCl, 0.01 M 2-mercaptoethanol, 10% (w/v) glycerol) were applied to the resin followed by 10 column volumes of elution buffer (0.05 M HEPES, pH 8.0, 0.25 M NaCl, 0.01 M 2-mercaptoethanol, 10% (w/v) glycerol, 0.1 M imidazole). Fractions were analyzed by SDS-PAGE and those containing the protein of interest were pooled and concentrated. The concentrated protein was applied to an Amersham Superdex 75 (XK 26/60) column equilibrated in 0.025 M Tris-HCl, pH 7.5, 0.1 M NaCl, 0.01 M 2-mercaptoethanol, 10% (w/v) glycerol. […] Fractions containing the monomeric protein of interest were pooled, concentrated to ˜2 mg/mL, and stored at −80° C.
(§3) The phosphorylation of biotinylated-BAD (S112) peptide by full length recombinant Pim-1, Pim-2, or Pim-3 protein was detected with streptavidin:Allophycocyanin (APC) conjugate and a europium (Eu) labeled antibody directed against phosphorylated-BAD (S112). Excitation of Eu by a high energy laser light (337 nm) leads to a transfer of energy to the APC molecule, and results in an emission at 665 nm. The fluorescence is directly proportional to the amount of phosphorylated BAD peptide present in the reaction.
For orientation: Time-resolved FRET reads energy transfer from a long-lived donor to a nearby acceptor.

The next test deals with Pim-2 (Homo sapiens (Human), UniProt Q9P1W9). As to the kind of experiment: Pim enzyme assay (HTRF, phosphorylation of biotinylated-BAD (S112) peptide), Pim-2. In kind it is biochemical.
Pim-2, sequence (Q9P1W9 whole entry): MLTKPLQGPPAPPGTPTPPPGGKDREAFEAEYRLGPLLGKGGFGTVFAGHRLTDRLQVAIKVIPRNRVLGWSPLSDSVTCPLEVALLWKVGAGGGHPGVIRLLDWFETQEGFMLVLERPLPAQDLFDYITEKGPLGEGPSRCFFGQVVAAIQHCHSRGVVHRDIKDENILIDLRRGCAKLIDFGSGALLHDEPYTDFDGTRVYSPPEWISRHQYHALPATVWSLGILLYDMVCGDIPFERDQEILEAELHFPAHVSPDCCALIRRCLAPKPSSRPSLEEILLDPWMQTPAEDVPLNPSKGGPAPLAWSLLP
From the text: as §1, §2, §3

Test [1] has as its system KMS-12-BM myeloma cell line. Description: Pim cell assay: phospho-BAD (S112) and total BAD in KMS-12-BM cells. In kind it is cell-based. The following applies: 1 hour and 50 minutes incubation. The protocol: The KMS-12-BM myeloma cell line was used to determine the in vitro cellular inhibition of Pim kinases. Disruption of Pim signaling by Pim inhibitors was determined by measuring the levels of phospho-BAD (S112) and total BAD. […] The cells were then incubated overnight at 37° C., 5% CO2. […] In addition to the 10-point dosing curve of the test compound, DMSO alone was run as a control. This dilution in DMSO was then diluted again into cell growth medium. Aliquots (11.1 uL) of the compound diluted in growth medium were then transferred to the appropriate wells of the 96-well plates containing cells to yield a final DMSO concentration of 0.3%. The cell plates were then incubated with compound for 1 hour and 50 minutes at 37° C., 5% CO2. After the 1 hour and 50 min incubation, the cell plates were spun at 1000 RPM for 10 minutes and the compound-containing medium was removed. […] The cell plates containing lysis buffer were then immediately stored at −70° C. These prepared lysates were then assayed for phospho-(S112) and total-BAD according to the manufacturer's protocol (Meso Scale Diagnostics, Cat # K15103D-3). The plates were read on the MSD Sector Imager 6000, and results were calculated according to the assay protocol: ((% Phosphoprotein=((2×Phospho signal)/(Phospho signal+Total signal))×100)).

Where [2] appears, read: full length recombinant Pim-1, biotinylated-BAD (S112) peptide, HTRF, 96-well, read-out: Pim-1 IC50 IP.
Where [3] appears, read: full length recombinant Pim-2, biotinylated-BAD (S112) peptide, HTRF, 96-well, read-out: Pim-2 IC50 IP.
The mark [4] stands for this setting: Homo sapiens, KMS-12-BM, read-out: KMS-12-BM IC50 IP.
The mark [5] stands for this setting: full length recombinant Pim-1, biotinylated-BAD (S112) peptide, HTRF, read-out: Pim_1_IC50.
Where [6] appears, read: full length recombinant Pim-2, biotinylated-BAD (S112) peptide, HTRF, read-out: Pim2_IC50.
Where [7] appears, read: Homo sapiens, KMS-12-BM, read-out: KMS12_Cell_IC50.

Pim-1, sequence (P11309 whole entry): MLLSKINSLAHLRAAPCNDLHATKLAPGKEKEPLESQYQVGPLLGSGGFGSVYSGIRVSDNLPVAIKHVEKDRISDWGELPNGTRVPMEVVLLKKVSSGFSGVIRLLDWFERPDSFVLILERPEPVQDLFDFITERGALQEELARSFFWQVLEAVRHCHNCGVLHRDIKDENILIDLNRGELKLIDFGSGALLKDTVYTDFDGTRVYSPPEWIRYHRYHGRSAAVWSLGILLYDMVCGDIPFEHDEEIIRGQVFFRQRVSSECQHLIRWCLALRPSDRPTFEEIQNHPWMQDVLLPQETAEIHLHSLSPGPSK

Regarding `N[C@H]1CCCN(c2ccccc2Nc2ncc3ccc(-c4c(F)cccc4F)nn23)C1` [Example 73, (S)-N-(2-(3-aminopiperidin-1-yl)phenyl)-2-(2,6-difluorophenyl)imidazo[1,5-b]pyridazin-7-amine], the values for the IC50 (at Pim-1 (setting [2]); at Pim-2 (setting [3]); in test [1] (setting [4])) were 2.2 nM, 6.5 nM and 3440 nM, respectively.

With `C[C@@H]1C[C@H](N)CN(c2ccncc2Nc2ncc3ccc(-c4ncccc4Cl)nn23)C1` [Example 79], the IC50 turned out to be 0.2 nM on Pim-1 (setting [2]), 0.5 nM at Pim-2 (setting [3]) and 132 nM in test [1] (setting [4]).

As to `CS(=O)(=O)c1ccc(-c2ccc3cnc(Nc4cnccc4N4CCC[C@H](N)C4)n3n2)c(F)c1` [Example 22, N-(4-((3S)-3-amino-1-piperidinyl)-3-pyridinyl)-2-(2-fluoro-4-(methylsulfonyl)phenyl)imidazo[1,5-b]pyridazin-7-amine], the IC50 at Pim-1 (setting [5]) came to 1.2 nM; at Pim-2 (setting [6]), 9.1 nM; in test [1] (setting [7]) it was 2390 nM.

In the case of `Fc1cccc(F)c1-c1ccc2cnc(Nc3cnccc3N3CCNCC3)n2n1` [Example 2, 2-(2,6-difluorophenyl)-N-(4-(1-piperazinyl)-3-pyridinyl)imidazo[1,5-b]pyridazin-7-amine], the IC50 at Pim-1 (setting [5]) is 14 nM; at Pim-2 (setting [6]) it was 126 nM; in test [1] (setting [7]) it was greater than 31000 nM.

On to `C[C@@H]1C[C@H](N)CN(c2ccncc2Nc2nnc3ccc(-c4c(F)cccc4F)nn23)C1` [Example 90, N-(4-((3S,5R)-3-amino-5-methylpiperidin-1-yl)pyridin-3-yl)-6-(2,6-difluorophenyl)-[1,2,4]triazolo[4,3-b]pyridazin-3-amine bis(2,2,2-trifluoroacetate)], for which the IC50 on Pim-1 (setting [2]) is 1 nM; at Pim-2 (read-out: Pim-2 IC50 IP), 3.9 nM; in test [1] (setting [4]) it was 509 nM.

As for `N[C@H]1C[C@H](C(F)(F)F)CN(c2ccncc2Nc2ncc3ccc(-c4c(F)cccc4F)nn23)C1` (racemic) [Example 61, rac-N-(4-((trans)-3-amino-5-(trifluoromethyl)piperidin-1-yl)pyridin-3-yl)-2-(2,6-difluorophenyl)imidazo[1,5-b]pyridazin-7-amine bis(2,2,2-trifluoroacetate)], the IC50 at Pim-1 (setting [2]) was 0.4 nM; at Pim-2 (setting [3]), 1.4 nM; in test [1] (setting [4]), 1630 nM.

Consider `N[C@H]1CCCN(c2ccncc2Nc2ncc3ccc(-c4cccnc4Cl)nn23)C1` [Example 6, N-(4-((3S)-3-amino-1-piperidinyl)-3-pyridinyl)-2-(2-chloro-3-pyridinyl)imidazo[1,5-b]pyridazin-7-amine (2,2,2-trifluoroacetate)], for which the IC50 stood at 8 nM on Pim-1 (setting [5]), 77 nM at Pim-2 (setting [6]) and 6660 nM in test [1] (setting [7]).

For `C[C@H]1CCN(c2ccncc2Nc2ncc3ccc(-c4c(F)cccc4F)nn23)C[C@H]1N` (single isomer, unassigned) [Example 99, N-(4-((cis)-3-amino-4-methylpiperidin-1-yl)pyridin-3-yl)-2-(2,6-difluorophenyl)imidazo[1,5-b]pyridazin-7-amine bis(2,2,2-trifluoroacetate)], the IC50 at Pim-1 (setting [2]) amounted to 0.3 nM; on Pim-2 (setting [3]), 1.6 nM; in test [1] (bis(2,2,2-trifluoroacetate), read-out: KMS-12-BM IC50 IP) it was 2700 nM.

Turning to `N[C@H]1CCCN(c2ccncc2Nc2ncc3ccc(-c4ccccc4Cl)nn23)C1` [Example 4, N-(4-((3S)-3-amino-1-piperidinyl)-3-pyridinyl)-2-(2-chlorophenyl)imidazo[1,5-b]pyridazin-7-amine], the IC50 at Pim-1 (setting [5]) is 0.9 nM; at Pim-2 (setting [6]), 3 nM; in test [1] (setting [7]) it was 2670 nM.

As for `N[C@H]1CCCN(c2ccncc2Nc2ncc3ccc(-c4cc(C(=O)NC5CC5)ccc4F)nn23)C1` [Example 74, 3-(7-((4-((3S)-3-amino-1-piperidinyl)-3-pyridinyl)amino)imidazo[1,5-b]pyridazin-2-yl)-N-cyclopropyl-4-fluorobenzamide], the IC50 at Pim-1 (setting [2]) is 0.2 nM; at Pim-2 (setting [3]) it was 0.5 nM; in test [1] (setting [4]) it was 185 nM.

For `N[C@H]1CCCN(c2ccncc2Nc2ncc3ccc(-c4ccccc4F)nn23)C1` [Example 15, N-(4-((3S)-3-amino-1-piperidinyl)-3-pyridinyl)-2-(2-fluorophenyl)imidazo[1,5-b]pyridazin-7-amine bis(2,2,2-trifluoroacetate)], the IC50 at Pim-1 (read-out: Pim_1_IC50) was 0.2 nM; at Pim-2 (setting [6]) it was 2 nM; in test [1] (setting [7]) it was 1540 nM.

In the case of `O[C@@H]1CCN(c2ccncc2Nc2ncc3ccc(-c4c(F)cccc4F)nn23)C[C@H]1O` (single isomer, unassigned) [Example 35, 1-(3-((2-(2,6-difluorophenyl)imidazo[1,5-b]pyridazin-7-yl)amino)-4-pyridinyl)-3,4-trans-piperidinediol], the IC50 came to 2.7 nM at Pim-1 (setting [2]), 8.8 nM on Pim-2 (setting [3]) and 667 nM in test [1] (setting [4]).

For `N[C@@H]1C=C(c2ccncc2Nc2ncc3ccc(-c4c(F)cccc4F)nn23)CCC1` (racemic) [Example 82, rac-N-(4-(3-aminocyclohex-1-en-1-yl)pyridin-3-yl)-2-(2,6-difluorophenyl)imidazo[1,5-b]pyridazin-7-amine tris(2,2,2-trifluoroacetate)], the results for the IC50 (on Pim-1 (setting [2]); in test [1] (setting [4])) were 1.2 nM and 1200 nM, respectively.

On to `N[C@@H]1C=C(c2ccncc2Nc2ncc3ccc(-c4c(F)cccc4F)nn23)CC[C@H]1F` (racemic) [Example 93, (2,2,2-trifluoroacetate)], for which the IC50 at Pim-2 (setting [3]) is 15.5 nM; in test [1] (setting [4]), 2600 nM.

Turning to `N[C@@H]1C=C(c2ccncc2Nc2ncc3ccc(-c4c(F)cccc4F)nn23)CCC1` (single isomer, unassigned) [Example 83, N-(4-(3-aminocyclohex-1-en-1-yl)pyridin-3-yl)-2-(2,6-difluorophenyl)imidazo[1,5-b]pyridazin-7-amine tris(2,2,2-trifluoroacetate)], the values for the IC50 (on Pim-1 (setting [2]); in test [1] (setting [4])) were 1.1 nM and 1090 nM, respectively.
